Measured values published in patent US8623340B2, “Omega-cyclohexylalkan-1-oles and use thereof as antimicrobial actives to combat body odor” (Symrise AG, priority 2009, dated 2014).
≈ marks a conversion by molar mass, not a printed value.

What was measured:
Format in all cases: cell-based
[1] = test system: Corynebacterium xerosis (DSM 20743, ATCC 373) biofilm; assay: Biofilm, mid-log assay on pre-existing biofilm (crystal violet staining CV580); conditions: 12.5 μg
Source text: The recognition that the compounds of formula (I) are also very particularly suitable for either inhibition of initial biofilm formation and stagnation or even detachment of pre-existing biofilms is based on a series of investigations relating to the particularly relevant microorganism Corynebacterium xerosis. The antimicrobial action of the compounds of formula (I) on biofilms is hereby detected with the assistance of a staining method. Crystal violet staining is used to quantify amount of biofilm in the presence and absence of an antimicrobial active ingredient. A possible inhibitory action of the test substance used is identified from the staining profile. […] Biofilm formation can be analyzed by crystal violet staining with subsequent spectroscopic quantitation at 580 nm (CV580). […] Optical density OD580 was then measured followed by crystal violet staining and spectroscopic quantitation of the biofilm at 580 nm (CV580). Mid-log time point was determined by cultivating untreated C. xerosis cells on separate control plates. CV580 crystal violet staining data of untreated control cells at mid-log were recorded. […] CV580 of untreated control samples was also recorded. […] Thus, untreated control cells will reach a value of 200%, corresponding to twice the exactly determined mid-log time point (half-maximal values for CV580; which was set 100%). […]

[2] = test system: Staphylococcus epidermidis (ATCC 12228); assay: quantitative suspension test
[3] = test system: Corynebacterium xerosis (DSM 20743); assay: quantitative suspension test
[4] = test system: Brevibacterium epidermidis (ATCC 35514); assay: quantitative suspension test
[5] = test system: Corynebacterium xerosis (DSM 20743, ATCC 373) biofilm; assay: Biofilm formation, classic assay (crystal violet staining CV580); conditions: 12.5 μg/ml
Source text: The recognition that the compounds of formula (I) are also very particularly suitable for either inhibition of initial biofilm formation and stagnation or even detachment of pre-existing biofilms is based on a series of investigations relating to the particularly relevant microorganism Corynebacterium xerosis. The antimicrobial action of the compounds of formula (I) on biofilms is hereby detected with the assistance of a staining method. Crystal violet staining is used to quantify amount of biofilm in the presence and absence of an antimicrobial active ingredient. A possible inhibitory action of the test substance used is identified from the staining profile. Corynebacterium xerosis can adhere to artificial laboratory surfaces and contribute to biofilm formation much the same way as it can do on skin in vivo. Therefore we furtheron established a test system to evaluate the influence of antimicrobial active compounds of formula (I) on Corynebacterium xerosis forming a biofilm or already residing in a biofilm. […] Biofilm formation can be analyzed by crystal violet staining with subsequent spectroscopic quantitation at 580 nm (CV580). […] Anti-microbial effects of test compounds on biofilm formation was determined by CV580 crystal violet staining 18-24 hours after inoculation and several washing steps that are needed to separate planctonic grown microorganisms.

[6] = test system: Brevibacterium epidermidis (ATCC 35514); assay: MIC determination by turbidimetric growth curves; conditions: 16 h, 37° C., turbidimetry 620 nm
Source text: (§1) The observation that the compounds of formula (I) are very particularly suitable for combating microorganisms which are responsible for body odor is based on a series of investigations relating to the particularly relevant microorganisms Staphylococcus epidermidis Corynebacterium xerosis, and Brevibacterium epidermidis. The antimicrobial action of the compounds of formula (I) is here detected with the assistance of a turbidimetric measurement method. Turbidity measurement is used to establish growth curves for the particular microorganism in the presence and absence of an antimicrobial active ingredient. A possible inhibitory action of the test substance used is identified from the profile of the growth curves. Solutions with saline or DMSO for 100% growth are prepared as a negative control. The active substances to be investigated are first diluted in DMSO in reaction vessels. Dilution is carried out in accordance with the concentration range to be tested and corresponds in each case to 100 times the concentration of the subsequent final concentration in the test Testing is usually begun with a final concentration of 2000 ppm (corresponding to 0.2 wt.-%) in the test. Growth curves at final concentrations of 1000 ppm, 500 ppm, 250 ppm, 125 ppm, 64 ppm, 32 ppm, 16 ppm and 8 ppm are subsequently determined. The bacterial cultures are then incubated in the presence of the various final concentrations of antimicrobial active ingredient for 16 h (incubation temperature: 37° C.). The absorption values (wavelength 620 nm; measurement interval: 20 minutes) obtained over the 16 hour period of turbidimetric measurement are recorded and exported into the spreadsheet program MS Excel. Means from in each case three parallel batches are calculated and used as the basis for establishing growth curves. The curves of the individual test sample concentrations are compared with those for the negative controls and the MIC value (minimum inhibitory concentration) is determined. The MIC value is the concentration at which no further growth is observable by turbidimetry.

[7] = test system: Staphylococcus epidermidis (ATCC 12228); assay: MIC determination by turbidimetric growth curves; conditions: ATCC12228, 16 h, 37° C., turbidimetry 620 nm, read-out: MIC (complete inhibition of growth, usage concentration)
Source text: as §1

[8] = test system: Corynebacterium xerosis (DSM 20743); assay: MIC determination by turbidimetric growth curves; conditions: 16 h, 37° C., turbidimetry 620 nm
Source text: as §1

| MIC [7] | SMILES | biofilm observed compared to the untreated control (set to 200%; mid-log value 100%) [1] | antimicrobial activity in quantitative suspension test [2] | antimicrobial activity in quantitative suspension test [3] | antimicrobial activity in quantitative suspension test [4] | biofilm formation inhibition [5] | concentration establishing inhibition of the growth [6] | concentration establishing inhibition of the growth [8] |
| --- | --- | --- | --- | --- | --- | --- | --- | --- |
| 64 µg/mL (≈ 347 µM) | CC(CO)CCCC1CCCCC1 (stereo not shown) [5-cyclohexyl-2-methyl-pentanol] | 53% | confirm the antimicrobial activity | confirm the antimicrobial activity | confirm the antimicrobial activity | 92% | below 0.2 wt. % | below 0.2 wt. % |
| 16 µg/mL (≈ 75.3 µM) | CCCC(CO)CCCC1CCCCC1 (stereo not shown) [5-cyclohexyl-2-n-propyl-pentanol] | 100% | confirm the antimicrobial activity | confirm the antimicrobial activity | confirm the antimicrobial activity | 65% | below 0.2 wt. % | below 0.2 wt. % |
